Source: US8835644B2, “Broad spectrum benzothiophene-nitrothiazolide and other antimicrobials” (University of Virginia Patent Foundation, priority 2009, dated 2014)
In brackets after ≈: the same amount, converted by molar mass. Structures can show the parent of a compound that is named as a salt. Where two headings read alike, the source gives them in different places.

Legend:
[1] = system: H. pylori; assay: MIC testing by broth dilution, H. pylori; format: cell-based, Helicobacter pylori; settings: 24 h, read-out: MIC (μM) H. pylori
Method in brief: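 Helicobacter pylori was tested using a standard broth dilution method in 96 well microplates, each well holding a standard dilution of the organism in 100 microliters of Brain Heart Infusion. Compounds started at 32 μg/ml in 200 microliters in the first well and were serially diluted from 32 to 0.06. Wells were read visually at 24 h, and the MIC was the well with no growth.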

[2] = system: S. epidermidis; assay: MIC testing by broth dilution, S. epidermidis plank; format: cell-based, Staphylococcus epidermidis; settings: 24 h, read-out: MIC (μM) S. epidermidis Plank
Method in brief: (§1)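 Compounds were diluted serially from 32 μg/ml to 0.06 in medium holding a standard inoculum, then visually scored at 24 h, and the lowest well without growth was recorded. Media were LB for E. coli, Trypticase Soy for S. epidermidis and Brain Heart Infusion for C. jejuni. C. difficile zones were measured anaerobically relative to NTZ.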

[3] = system: E. coli; assay: MIC testing by broth dilution, E. coli plank; format: cell-based, Escherichia coli; settings: 24 h, read-out: MIC (μM) E. coli Plank
Method in brief: as §1

[4] = system: C. jejuni; assay: MIC testing by broth dilution, C. jejuni; format: cell-based, Campylobacter jejuni; settings: 24 h, read-out: MIC (μM) C. jejuni
Method in brief: as §1

[5] = system: S. epidermidis biofilm; assay: S. epidermidis biofilm assay (activity tables); format: cell-based, Staphylococcus epidermidis
Procedure: Staphylococcal strains were cultured overnight in TSB at 37° C. with shaking, diluted in fresh medium to an OD600 of 0.01 and 200 W was dispensed into sterile flat bottom polystyrene 96 well microtiter plates (Costar 3596, Corning Inc.). […] Each compound and dilution was tested in triplicate. The plates were incubated overnight at 37° C. in a humidified incubator, without shaking and both growth and biofilm accumulation were determined at 16 h.
Following recording of turbidities, the culture medium was aspirated and the wells were washed three times with distilled water, blotted on paper towels, and fixed with 75% ethanol for 10 minutes.
To visualize biofilm material, 0.5% crystal violet was added to each well and after 5 minutes was removed and the wells washed three times with distilled water. Plates were read using a microplate reader at a wavelength of 570 nm. The dye was then extracted by adding 200 W of 95% ethanol, and the absorbance was read again at 570 nm. All assays were performed in triplicate and the mean and standard deviation determined. […]
(§2) Representative compounds of the invention were tested in a series of assays against a series of organisms as described above. […] The organisms tested include, C. difficile, H. pylori, C. jejuni, MRSA, S. epidermidis, and E. coli. S. epidermidis and E. coli were tested in the plank and biofilm assay. A disk diffusion assay was also used for C. difficile. Direct PFOR enzyme assays were also performed. All analogues and derivatives were not tested on every organism in every type of assay (the “-” in each table means that it was not tested).

[6] = system: E. coli biofilm; assay: E. coli biofilm assay (activity tables); format: cell-based, Escherichia coli; settings: read-out: MIC (μM) E. coli Biofilm
Procedure: A quantitative biofilm assay was used to determine the effect of NTZ on biofilm formation (41). Strain 042 was grown overnight at 37° C. with shaking and inoculated 1:100 in 200 μl culture medium in Costar 96-well, flat-bottom, polystyrene microtiter plates containing appropriate concentrations of NTZ. Plates were incubated statically at 37° C. in a humidified incubator. At 24 h, bacterial growth was measured by either transferring […] aliquots to another microtiter plate to determine turbidity or by diluting 100 μl aliquots 1:100 in 9.9 ml PBS for quantitative plate counts on LB medium. Bacterial counts in triplicate are reported as cfu/ml. Biofilm was visualized following staining with 0.5% crystal violet (41) and the absorbance was read at 570 nm using a microplate reader (Molecular Dynamics). All experiments were in triplicate and reported as mean and standard deviation.
A standard broth dilution protocol was used in 96 well microplates containing a standard dilution of the microorganism to be tested in 100 microliters of the appropriate medium. Appropriate medium: E. coli, LB medium; Staphylococcus strains, Trypticase Soy; and for H. pylori and C. jejuni, Brain Heart Infusion. The compounds to be tested were set at 32 μg/ml in 200 microliters in well one and then serially diluted to provide a range from 32 to 0.06. The wells were scored visually at 24 h. The well where there was no growth was recorded as the MIC. Clostridium difficile was tested by agar diffusion and disk diffusion (Kirby Bower) methods under anaerobic conditions on Wilkins Chalgrin agar. In these assays, zone of inhibited growth was measured and compared by relative ratio to the zone recorded for NTZ.
as §2

[7] = system: MRSA; assay: MIC testing by broth dilution, MRSA; format: cell-based, Staphylococcus aureus; settings: 24 h, read-out: MIC (μM) MRSA
Method in brief: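 Values are broth-dilution MICs, defined as the well showing no growth on visual reading after 24 h; the tested range was 32 to 0.06 μg/ml, in organism-specific media (LB, Trypticase Soy, Brain Heart Infusion). The C. difficile entries come instead from anaerobic Kirby-Bauer disk zones, normalised to NTZ.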

[8] = broth dilution, Brain Heart Infusion

Compound | MIC [1, 8] | MIC ([2]; broth dilution, Trypticase Soy) | MIC ([3]; broth dilution, LB medium) | MIC [4, 8] | MIC (μM) S. epidermidis Biofilm [5] | MIC ([6]; biofilm) | MIC ([7]; broth dilution, Trypticase Soy) | MIC ([1]; Helicobacter pylori) | MIC ([2]; Staphylococcus epidermidis) | MIC ([3]; Escherichia coli) | MIC ([4]; Campylobacter jejuni) | MIC ([6]; Escherichia coli) | MIC ([7]; Staphylococcus aureus, MRSA)
Cl.N[C@H](C(=O)Nc1ncc([N+](=O)[O-])s1)c1ccccc1 [VPC16a1027] | 76.3 µM | 101.7 µM | 101.7 µM | 38.1 µM | 101.7 µM | 25.4 µM | 101.7 µM | – | – | – | – | – | –
N[C@@H](Cc1ccccc1)C(=O)Nc1ncc([N+](=O)[O-])s1 [VPC16a1028, (S)-2-Amino-N-(5-nitrothiazol-2-yl)-3-phenylpropanamide hydrochloride] | – | – | – | – | 97.3 µM | – | – | 18.3 µM | 97.3 µM | 97.3 µM | 36.5 µM | 48.7 µM | 97.3 µM
NCCCC[C@H](N)C(=O)Nc1ncc([N+](=O)[O-])s1 [VPC16a1032] | 69.3 µM (≈ 18.9 µg/mL) | 92.4 µM (≈ 25.3 µg/mL) | 92.4 µM (≈ 25.3 µg/mL) | 92.4 µM (≈ 25.3 µg/mL) | 92.4 µM (≈ 25.3 µg/mL) | 0.1 µM (≈ 0.0273 µg/mL) | 92.4 µM (≈ 25.3 µg/mL) | – | – | – | – | – | –
CC(=O)Nc1ncc([N+](=O)[O-])s1 [VPC16a1033] | 3.5 µM (≈ 0.655 µg/mL) | 21.4 µM (≈ 4.01 µg/mL) | 42.7 µM (≈ 7.99 µg/mL) | 14.0 µM (≈ 2.62 µg/mL) | 21.4 µM (≈ 4.01 µg/mL) | 42.7 µM (≈ 7.99 µg/mL) | 171.0 µM (≈ 32 µg/mL) | – | – | – | – | – | –
CCCCCCCCCC(=O)Nc1ncc([N+](=O)[O-])s1 [VPC16b1043] | 1.2 µM (≈ 0.359 µg/mL) | 106.9 µM (≈ 32 µg/mL) | 106.9 µM (≈ 32 µg/mL) | 3.9 µM (≈ 1.17 µg/mL) | 1.7 µM (≈ 0.509 µg/mL) | 106.9 µM (≈ 32 µg/mL) | 106.9 µM (≈ 32 µg/mL) | – | – | – | – | – | –
CCCC(=O)Nc1ncc([N+](=O)[O-])s1 [VPC16b1045] | 0.5 µM (≈ 0.108 µg/mL) | 37.2 µM (≈ 8.01 µg/mL) | 148.7 µM (≈ 32 µg/mL) | 2.1 µM (≈ 0.452 µg/mL) | 4.6 µM (≈ 0.99 µg/mL) | 148.7 µM (≈ 32 µg/mL) | 148.7 µM (≈ 32 µg/mL) | – | – | – | – | – | –
CC(C)(C(=O)Nc1ncc([N+](=O)[O-])s1)C(=O)Nc1ncc([N+](=O)[O-])s1 [VPC16b1048] | 20.7 µM (≈ 8 µg/mL) | 82.8 µM (≈ 32 µg/mL) | 82.8 µM (≈ 32 µg/mL) | 82.8 µM (≈ 32 µg/mL) | 41.4 µM (≈ 16 µg/mL) | 82.8 µM (≈ 32 µg/mL) | 82.8 µM (≈ 32 µg/mL) | – | – | – | – | – | –
CC(=O)Oc1cc(C#N)ccc1C(=O)Nc1ncc([N+](=O)[O-])s1 [VPC161076] | 24.1 µM (≈ 8.01 µg/mL) | 96.3 µM (≈ 32 µg/mL) | 96.3 µM (≈ 32 µg/mL) | 96.3 µM (≈ 32 µg/mL) | 48.2 µM (≈ 16 µg/mL) | 96.3 µM (≈ 32 µg/mL) | 96.3 µM (≈ 32 µg/mL) | – | – | – | – | – | –
O=C(Nc1ncc([N+](=O)[O-])s1)c1cccc([N+](=O)[O-])c1O [VPC161090] | 19.3 µM (≈ 5.99 µg/mL) | 77.4 µM (≈ 24 µg/mL) | 103.1 µM (≈ 32 µg/mL) | 103.1 µM (≈ 32 µg/mL) | 6.4 µM (≈ 1.99 µg/mL) | 103.1 µM (≈ 32 µg/mL) | 103.1 µM (≈ 32 µg/mL) | – | – | – | – | – | –
O=C(Nc1ncc([N+](=O)[O-])s1)c1ccc(F)cc1C(F)(F)F [VPC161127] | 3.4 µM (≈ 1.14 µg/mL) | 23.9 µM (≈ 8.01 µg/mL) | 95.5 µM (≈ 32 µg/mL) | 23.9 µM (≈ 8.01 µg/mL) | 13.4 µM (≈ 4.49 µg/mL) | 95.5 µM (≈ 32 µg/mL) | 8.9 µM (≈ 2.98 µg/mL) | – | – | – | – | – | –
O=C(Nc1ncc([N+](=O)[O-])s1)c1cccc(F)c1 [VPC161166] | 0.9 µM (≈ 0.241 µg/mL) | 22.5 µM (≈ 6.01 µg/mL) | 119.7 µM (≈ 32 µg/mL) | 11.2 µM (≈ 2.99 µg/mL) | 59.9 µM (≈ 16 µg/mL) | 59.9 µM (≈ 16 µg/mL) | 16.8 µM (≈ 4.49 µg/mL) | – | – | – | – | – | –
O=C(Nc1ncc([N+](=O)[O-])s1)c1ccc([N+](=O)[O-])cc1 [VPC161170] | 1.3 µM (≈ 0.383 µg/mL) | 10.2 µM (≈ 3 µg/mL) | 81.6 µM (≈ 24 µg/mL) | 13.6 µM (≈ 4 µg/mL) | 3.4 µM (≈ 1 µg/mL) | 108.8 µM (≈ 32 µg/mL) | 20.4 µM (≈ 6 µg/mL) | – | – | – | – | – | –
COc1ccc(-c2ccc(F)cc2F)cc1C(=O)Nc1ncc([N+](=O)[O-])s1 [VPC161171] | 0.8 µM (≈ 0.313 µg/mL) | 81.8 µM (≈ 32 µg/mL) | 81.8 µM (≈ 32 µg/mL) | 40.9 µM (≈ 16 µg/mL) | 81.8 µM (≈ 32 µg/mL) | 81.8 µM (≈ 32 µg/mL) | 81.8 µM (≈ 32 µg/mL) | – | – | – | – | – | –
N#Cc1cccc(C(=O)Nc2ncc([N+](=O)[O-])s2)c1 [VPC161173] | 4.1 µM (≈ 1.12 µg/mL) | 29.2 µM (≈ 8.01 µg/mL) | 116.7 µM (≈ 32 µg/mL) | 36.5 µM (≈ 10 µg/mL) | 58.3 µM (≈ 16 µg/mL) | 116.7 µM (≈ 32 µg/mL) | 43.8 µM (≈ 12 µg/mL) | – | – | – | – | – | –
O=C(Nc1ncc([N+](=O)[O-])s1)c1cccnc1 [VPC161176] | 4.0 µM (≈ 1 µg/mL) | 127.9 µM (≈ 32 µg/mL) | 127.9 µM (≈ 32 µg/mL) | 71.9 µM (≈ 18 µg/mL) | 63.9 µM (≈ 16 µg/mL) | 127.9 µM (≈ 32 µg/mL) | 127.9 µM (≈ 32 µg/mL) | – | – | – | – | – | –
O=C(Nc1ncc([N+](=O)[O-])s1)c1ccncc1 [VPC161177] | 16.0 µM (≈ 4 µg/mL) | 127.9 µM (≈ 32 µg/mL) | 127.9 µM (≈ 32 µg/mL) | 24.0 µM (≈ 6.01 µg/mL) | 127.9 µM (≈ 32 µg/mL) | 127.9 µM (≈ 32 µg/mL) | 127.9 µM (≈ 32 µg/mL) | – | – | – | – | – | –
